Laboratory results published in ChEMBL document CHEMBL3603745, “Synthesis of ciprofloxacin dimers for evaluation of bacterial permeability in atypical chemical space” (Bioorg Med Chem Lett, 2015).
≈ marks a conversion by molar mass, not a printed value.

Key:
Pseudomonas aeruginosa [1] = test: Antibacterial activity against wild type Pseudomonas aeruginosa PAO1 by broth microdilution method; type: functional
Escherichia coli [2] = test: Antibacterial activity against Escherichia coli imp-4213 by broth microdilution method; type: functional
Escherichia coli [3] = test: Antibacterial activity against wild type Escherichia coli ATCC 25922 by broth microdilution method; type: functional
Pseudomonas aeruginosa [4] = test: Antibacterial activity against Pseudomonas aeruginosa K1542 deficient with mexX, mexB by broth microdilution method; type: functional
Escherichia coli [5] = test: Antibacterial activity against fluoroquinolone-resistant Escherichia coli CH10 harboring gyrA S83L D87N, parC S80I E84G, AcrA+ by broth microdilution method; type: functional
Escherichia coli [6] = test: Antibacterial activity against tolC-deficient Escherichia coli NB27005-CDY0039 expressing gyrA S83L […], parC S80I mutant by broth microdilution method; type: functional
Staphylococcus aureus [7] = test: Antibacterial activity against wild type methicillin-susceptible Staphylococcus aureus ATCC 49951 by broth microdilution method; type: functional
Pseudomonas aeruginosa [8] = test: Antibacterial activity against mexX, mexB deficient Pseudomonas aeruginosa NB52023-CDK006 harboring gyrAT83I and parC S87L by broth microdilution method; type: functional
[9] = Inhibition of Escherichia coli recombinant gyrase A2B2 assessed as reduction of pHOT-1 supercoiling after 90 mins
Escherichia coli [10] = test: Antibacterial activity against tolC-deficient Escherichia coli JW5503-1 by broth microdilution method; type: functional
Escherichia coli [11] = test: Antibacterial activity against wild type Escherichia coli BW5328/pAH69 by broth microdilution method; type: functional
Staphylococcus aureus [12] = test: Antibacterial activity against fluoroquinolone-resistant Staphylococcus aureus NB01006-AVR005 harboring gyrA S84L, parC S80F, parE E471K by broth microdilution method; type: functional
Staphylococcus aureus [13] = test: Antibacterial activity against wild type Staphylococcus aureus ATCC 29213 by broth microdilution method; type: functional
Escherichia coli [14] = test: Antibacterial activity against wild type Escherichia coli MC4100 by broth microdilution method; type: functional
Pseudomonas aeruginosa [15] = test: Antibacterial activity against mexX, mexB deficient Pseudomonas aeruginosa NB52023-CDK005 harboring gyrAT83I by broth microdilution method; type: functional

Row | Compound | MIC (Pseudomonas aeruginosa [1]) | MIC (Escherichia coli [2]) | MIC (Escherichia coli [3]) | MIC (Pseudomonas aeruginosa [4]) | MIC (Escherichia coli [5]) | MIC (Escherichia coli [6]) | MIC (Staphylococcus aureus [7]) | MIC (Pseudomonas aeruginosa [8]) | IC50 [9] | MIC (Escherichia coli [10]) | MIC (Escherichia coli [11]) | MIC (Staphylococcus aureus [12]) | MIC (Staphylococcus aureus [13]) | MIC (Escherichia coli [14]) | MIC (Pseudomonas aeruginosa [15])
1 | CN(CC(=O)N1CCN(c2cc3c(cc2F)c(=O)c(C(=O)O)cn3C2CC2)CC1)CC(=O)N1CCN(c2cc3c(cc2F)c(=O)c(C(=O)O)cn3C2CC2)CC1 | 2 µg/mL (≈ 2.58 µM) | 0.06 µg/mL (≈ 0.0775 µM) | 0.25 µg/mL (≈ 0.323 µM) | 0.5 µg/mL (≈ 0.646 µM) | > 32 µg/mL | 32 µg/mL (≈ 41.4 µM) | 2 µg/mL (≈ 2.58 µM) | 32 µg/mL (≈ 41.4 µM) | 4.37 µM | 0.06 µg/mL (≈ 0.0775 µM) | 0.25 µg/mL (≈ 0.323 µM) | > 32 µg/mL | 4 µg/mL (≈ 5.17 µM) | 0.25 µg/mL (≈ 0.323 µM) | 8 µg/mL (≈ 10.3 µM)
2 | O=C(O)c1cn(C2CC2)c2cc(N3CCN(C(=O)OCCOCCOCCOC(=O)N4CCN(c5cc6c(cc5F)c(=O)c(C(=O)O)cn6C5CC5)CC4)CC3)c(F)cc2c1=O | > 32 µg/mL | 0.25 µg/mL (≈ 0.289 µM) | 16 µg/mL (≈ 18.5 µM) | 16 µg/mL (≈ 18.5 µM) | > 32 µg/mL | 32 µg/mL (≈ 37 µM) | 2 µg/mL (≈ 2.31 µM) | > 32 µg/mL | 7.25 µM | 0.125 µg/mL (≈ 0.145 µM) | 16 µg/mL (≈ 18.5 µM) | > 32 µg/mL | 4 µg/mL (≈ 4.63 µM) | 16 µg/mL (≈ 18.5 µM) | > 32 µg/mL
3 | O=C(O)c1cn(C2CC2)c2cc(N3CCN(CCOCCOCCOCCOCCOCCOCCOCCN4CCN(c5cc6c(cc5F)c(=O)c(C(=O)O)cn6C5CC5)CC4)CC3)c(F)cc2c1=O | 16 µg/mL (≈ 16 µM) | 4 µg/mL (≈ 4.01 µM) | 2 µg/mL (≈ 2.01 µM) | 16 µg/mL (≈ 16 µM) | > 32 µg/mL | 8 µg/mL (≈ 8.02 µM) | 1 µg/mL (≈ 1 µM) | > 32 µg/mL | 1.38 µM | 0.125 µg/mL (≈ 0.125 µM) | 4 µg/mL (≈ 4.01 µM) | > 32 µg/mL | 4 µg/mL (≈ 4.01 µM) | 4 µg/mL (≈ 4.01 µM) | > 32 µg/mL
4 | CC(C)(C)OC(=O)NCCCCCC(=O)N1CCN(c2cc3c(cc2F)c(=O)c(C(=O)O)cn3C2CC2)CC1 | > 32 µg/mL | 0.25 µg/mL (≈ 0.459 µM) | > 32 µg/mL | > 32 µg/mL | > 32 µg/mL | 2 µg/mL (≈ 3.67 µM) | 2 µg/mL (≈ 3.67 µM) | > 32 µg/mL | 4.35 µM | 0.06 µg/mL (≈ 0.11 µM) | > 32 µg/mL | > 32 µg/mL | 2 µg/mL (≈ 3.67 µM) | > 32 µg/mL | > 32 µg/mL
5 | O=C(NCC(=O)N1CCN(c2cc3c(cc2F)c(=O)c(C(=O)O)cn3C2CC2)CC1)c1cccc(C(=O)NCC(=O)N2CCN(c3cc4c(cc3F)c(=O)c(C(=O)O)cn4C3CC3)CC2)c1 | 16 µg/mL (≈ 17.6 µM) | 0.25 µg/mL (≈ 0.276 µM) | 1 µg/mL (≈ 1.1 µM) | 2 µg/mL (≈ 2.21 µM) | > 32 µg/mL | > 32 µg/mL | 1 µg/mL (≈ 1.1 µM) | > 32 µg/mL | 3.2 µM | 0.25 µg/mL (≈ 0.276 µM) | 2 µg/mL (≈ 2.21 µM) | > 32 µg/mL | > 32 µg/mL | 2 µg/mL (≈ 2.21 µM) | 32 µg/mL (≈ 35.3 µM)
6 | O=C(CN1CCN(c2cc3c(cc2F)c(=O)c(C(=O)O)cn3C2CC2)CC1)NCCOCCOCCNC(=O)CN1CCN(c2cc3c(cc2F)c(=O)c(C(=O)O)cn3C2CC2)CC1 | > 32 µg/mL | 8 µg/mL (≈ 8.98 µM) | 32 µg/mL (≈ 35.9 µM) | 32 µg/mL (≈ 35.9 µM) | > 32 µg/mL | > 32 µg/mL | > 32 µg/mL | > 32 µg/mL | 1.04 µM | 4 µg/mL (≈ 4.49 µM) | 32 µg/mL (≈ 35.9 µM) | > 32 µg/mL | > 32 µg/mL | 32 µg/mL (≈ 35.9 µM) | > 32 µg/mL
7 | O=C(CCN1CCN(c2cc3c(cc2F)c(=O)c(C(=O)O)cn3C2CC2)CC1)NCCOCCOCCNC(=O)CCN1CCN(c2cc3c(cc2F)c(=O)c(C(=O)O)cn3C2CC2)CC1 | > 32 µg/mL | 4 µg/mL (≈ 4.35 µM) | 8 µg/mL (≈ 8.71 µM) | > 32 µg/mL | > 32 µg/mL | > 32 µg/mL | > 32 µg/mL | > 32 µg/mL | 2.14 µM | 1 µg/mL (≈ 1.09 µM) | 8 µg/mL (≈ 8.71 µM) | > 32 µg/mL | > 32 µg/mL | 8 µg/mL (≈ 8.71 µM) | > 32 µg/mL
8 | O=C(O)c1cn(C2CC2)c2cc(N3CCN(CCOCCOCCN4CCN(c5cc6c(cc5F)c(=O)c(C(=O)O)cn6C5CC5)CC4)CC3)c(F)cc2c1=O | 32 µg/mL (≈ 41.2 µM) | 0.5 µg/mL (≈ 0.644 µM) | 2 µg/mL (≈ 2.57 µM) | 8 µg/mL (≈ 10.3 µM) | > 32 µg/mL | > 32 µg/mL | 16 µg/mL (≈ 20.6 µM) | > 32 µg/mL | 28.2 µM | 0.25 µg/mL (≈ 0.322 µM) | 2 µg/mL (≈ 2.57 µM) | > 32 µg/mL | 16 µg/mL (≈ 20.6 µM) | 2 µg/mL (≈ 2.57 µM) | > 32 µg/mL
9 | O=C(O)c1cn(C2CC2)c2cc(N3CCN(CCOCCOCCOCCOCCOCCN4CCN(c5cc6c(cc5F)c(=O)c(C(=O)O)cn6C5CC5)CC4)CC3)c(F)cc2c1=O | 32 µg/mL (≈ 35.2 µM) | 0.125 µg/mL (≈ 0.138 µM) | 2 µg/mL (≈ 2.2 µM) | 8 µg/mL (≈ 8.8 µM) | > 32 µg/mL | > 32 µg/mL | 2 µg/mL (≈ 2.2 µM) | > 32 µg/mL | 10 µM | 0.125 µg/mL (≈ 0.138 µM) | 2 µg/mL (≈ 2.2 µM) | > 32 µg/mL | 8 µg/mL (≈ 8.8 µM) | 4 µg/mL (≈ 4.4 µM) | > 32 µg/mL
